Reference: article PMC9863764, “Roles of Human Liver Cytochrome P450 Enzymes in Tenatoprazole Metabolism” (Pharmaceutics, 2022)
Values joined by “and” are separate entries in the source; they are usually repeats but may differ in a detail not shown here. Identical values can stand only once.

Experiments:
Assay type in all cases: in vitro ADME
CYP2D6 = target: T1, CYP2D6 (Homo sapiens, UniProt P10635); assay: Tenatoprazole oxidation by recombinant CYP2D6; conditions: substrate tenatoprazole 0.10 mM, 0.20 μM CYP2D6
T1 construct: made in house; host or cells: Escherichia coli (membrane fractions)
Description: (§1) Pooled liver microsomes from human samples were obtained from ThermoFisher Scientific (Waltham, MA, USA). Recombinant human P450s were heterologously expressed in Escherichia coli with a pCW vector containing human P450 cDNA (CYP 3A4, 2C9, 2C19, 1A2, 1B1, 2E1, 2D6, and 2A6) and rat NADPH-P450 reductase (CPR). Membrane fractions expressing both P450 and CPR of E. coli were prepared as described previously and were used for the catalytic activity assays.
(§2) The reaction mixture included 0.20 μM P450, 0.40 μM CPR, and tenatoprazole (0.10 mM) in 0.25 mL of 0.10 M potassium phosphate buffer (pH 7.4). The reaction was started by adding NGS and the incubation was continued for the indicated time at 37 °C. Incubation was then stopped by adding ice-chilled ethyl acetate (0.50 mL) and omeprazole (IS) was added to a final concentration of 20 μM. The mixtures were vortexed for 2 min, centrifuged at 1000× g for 20 min, and then the organic layer was taken for drying under nitrogen gas stream. The residues were dissolved in 180 μL of HPLC mobile phase and 30 μL was injected onto a Gemini C18 column (4.6 × 150 mm, 5 μm; Phenomenex, Torrance, CA, USA). The products formed were analyzed by HPLC at A302. […]

CYP2C9 = target: T2, CYP2C9 (Homo sapiens, UniProt P11712); assay: Tenatoprazole oxidation by recombinant CYP2C9; conditions: substrate tenatoprazole 0.10 mM, 0.20 μM CYP2C9
T2 construct: made in house; host or cells: Escherichia coli (membrane fractions)
Description: as §1, §2

human CYP2C19 = target: T3, human CYP2C19 (Homo sapiens, UniProt P33261); assay: Steady-state kinetics of tenatoprazole oxidation by recombinant CYP2C19
T3 construct: made in house; host or cells: Escherichia coli (membrane fractions)
Description: Pooled liver microsomes from human samples were obtained from ThermoFisher Scientific (Waltham, MA, USA). […] Membrane fractions expressing both P450 and CPR of E. coli were prepared as described previously and were used for the catalytic activity assays. […] The reaction was started by adding NGS and the incubation was continued for the indicated time at 37 °C. Incubation was then stopped by adding ice-chilled ethyl acetate (0.50 mL) and omeprazole (IS) was added to a final concentration of 20 μM. […] Phenomenex, Torrance, CA, USA). The products formed were analyzed by HPLC at […]. […] The kinetic parameters (kcat and Km) were determined by using a Michaelis-Menten nonlinear regression analysis with GraphPad Prism (GraphPad Software, San Diego, CA, USA).

T3 sequence (P33261 whole entry): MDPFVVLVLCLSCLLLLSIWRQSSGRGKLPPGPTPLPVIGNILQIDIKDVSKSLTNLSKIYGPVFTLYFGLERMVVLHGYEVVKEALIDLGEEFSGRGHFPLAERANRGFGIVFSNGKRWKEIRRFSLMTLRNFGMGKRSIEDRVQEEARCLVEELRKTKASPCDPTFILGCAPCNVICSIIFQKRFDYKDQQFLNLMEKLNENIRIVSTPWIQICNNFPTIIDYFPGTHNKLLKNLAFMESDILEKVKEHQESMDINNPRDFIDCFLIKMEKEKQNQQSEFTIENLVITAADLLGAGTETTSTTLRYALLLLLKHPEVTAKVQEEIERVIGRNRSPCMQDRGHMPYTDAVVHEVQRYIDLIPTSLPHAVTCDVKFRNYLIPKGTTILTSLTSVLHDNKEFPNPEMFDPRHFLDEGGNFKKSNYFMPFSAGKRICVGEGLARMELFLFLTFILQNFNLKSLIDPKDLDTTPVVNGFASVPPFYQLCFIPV
T2 sequence (P11712 whole entry): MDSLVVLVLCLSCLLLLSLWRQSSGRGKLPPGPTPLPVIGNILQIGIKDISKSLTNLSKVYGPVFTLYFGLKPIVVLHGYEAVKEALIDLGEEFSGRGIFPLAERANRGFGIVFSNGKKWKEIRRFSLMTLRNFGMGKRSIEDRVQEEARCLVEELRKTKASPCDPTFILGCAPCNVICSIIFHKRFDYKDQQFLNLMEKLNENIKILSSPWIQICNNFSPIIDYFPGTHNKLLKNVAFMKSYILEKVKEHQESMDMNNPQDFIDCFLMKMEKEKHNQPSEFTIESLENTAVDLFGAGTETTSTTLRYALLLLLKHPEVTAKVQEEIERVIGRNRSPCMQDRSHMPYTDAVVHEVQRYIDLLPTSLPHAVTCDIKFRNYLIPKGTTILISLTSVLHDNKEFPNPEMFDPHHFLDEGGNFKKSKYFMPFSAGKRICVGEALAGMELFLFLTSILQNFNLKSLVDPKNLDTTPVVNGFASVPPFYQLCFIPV
T1 sequence (P10635 whole entry): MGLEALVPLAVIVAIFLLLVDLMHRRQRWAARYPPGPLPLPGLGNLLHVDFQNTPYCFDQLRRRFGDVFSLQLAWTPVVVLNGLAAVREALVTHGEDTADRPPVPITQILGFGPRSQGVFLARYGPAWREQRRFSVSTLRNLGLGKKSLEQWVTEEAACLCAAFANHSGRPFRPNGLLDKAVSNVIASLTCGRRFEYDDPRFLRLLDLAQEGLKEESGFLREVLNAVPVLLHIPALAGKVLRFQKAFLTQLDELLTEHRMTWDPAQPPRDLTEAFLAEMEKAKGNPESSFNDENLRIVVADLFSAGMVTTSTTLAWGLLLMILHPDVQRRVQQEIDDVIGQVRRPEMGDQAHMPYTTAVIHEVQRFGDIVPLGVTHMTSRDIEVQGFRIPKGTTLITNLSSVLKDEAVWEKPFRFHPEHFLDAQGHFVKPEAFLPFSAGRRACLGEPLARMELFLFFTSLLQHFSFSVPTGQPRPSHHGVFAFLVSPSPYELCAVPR

SMILES: COc1ccc2[nH]c([S+]([O-])Cc3ncc(CO)c(OC)c3C)nc2n1 (stereo not shown) [5′-OH tenatoprazole, 5′-hydroxy tenatoprazole]
- formation rate of metabolite (CYP2D6): 0.1 min⁻¹
- formation rate of metabolite (CYP2C9): 0.1 min⁻¹
- fold higher catalytic efficiency of CYP2C19 than CYP3A4 (human CYP2C19; 5′-OH tenatoprazole formation from tenatoprazole): 63 fold
- kcat of product formation (human CYP2C19; substrate tenatoprazole (1–500 μM), recombinant CYP2C19 0.20 μM, 37 °C, 5 min, label = product formed): 0.0667 s⁻¹ and 0.0667 ± 0.0033 s⁻¹
